Measurements: patent publication US11071770B2, “Methods for detecting cardiac damage” (Acorda Therapeutics, Inc., priority 2007, dated 2021)
Marks after values point to notes of the source that are not given here. Where a SMILES comes first, the peptide text is derived from it. The star is where a group is joined. Cbz = O=C(OCc1ccccc1)*

Experiments:
[1] = test system: neonatal rat cardiomyocytes; settings: NRCM, doxorubicin 1 uM
[2] = test system: mice with cardiac myocyte-specific overexpression of a dominant negative PI3K; assay: Survival of doxorubicin-treated WT and dnPI3K transgenic mice (Kaplan-Meier); assay type: in vivo, mouse; settings: doxorubicin 20 mg/kg i.p., fourteen-day
[3] = test system: C57BL/6 mice; assay: Two-week survival of doxorubicin-treated mice (Kaplan-Meier); assay type: in vivo, mouse; settings: two weeks after doxorubicin 20 mg/kg i.p.; NRG1 0.75 mg/kg s.c. daily vs placebo; doxorubicin vs non-treated control
Experimental: (§1) FIGS. 1A-1C show survival graphs (A), histograms (B-C), and immunoblots (C). […] Fourteen day survival was analyzed by the Kaplan-Meier method.
Cardiac function was assessed by direct left ventricular (LV) catheterization four days and two weeks after doxorubicin treatment. Two-week survival was analyzed by the Kaplan-Meier methods.

[4] = test system: caspase 3, 6 and 9 as well as caspase-10, 2, and 5; assay: Caspase activation assay in cardiomyocytes; assay type: cell-based, rat; settings: Dox or Dox+NRG1
Text: To investigate whether NRG1 inhibited doxorubicin-induced caspase degradation of cTnI and cTnT, the present inventors first identified the specific caspases that were responsible for doxorubicin-induced degradation of cTnI and cTnT. […] In addition, down-regulation of cTnI was blocked by inhibitors for caspase-10 (extrinsic pathway), caspase-2, caspase-13 or caspase-5.

[5] = test system: cytochrome c release; assay: Cytochrome c release (cell fractionation and Western blot); assay type: cell-based, rat; settings: NRCM, Dox or Dox+NRG1
[6] = test system: cTnI and cTnT protein levels; assay: cTnI and cTnT protein levels in hearts of doxorubicin-treated WT and dnPI3K mice; assay type: in vivo, mouse; settings: two weeks after doxorubicin injection
Experimental: FIGS. 5A-5C show a survival graph (A), histograms (B), and an immunoblot (C). […] Fourteen-day survival was analyzed by the Kaplan-Meier method. FIG. 5B depicts hemodynamic measurements in doxorubicin-treated dnPI3K mice. […] Hemodynamic measurements were performed six days after the doxorubicin treatment.
The present inventors measured cTnI and cTnT protein levels in doxorubicin-treated WT and dnPI3K mice.

[7] = test system: cTnI, cTnT and cTnC protein levels; assay: Cardiac structural protein levels in heart by Western blot; assay type: in vivo, mouse
Experimental: as §1
Eight to ten week old C57BL/6 male mice were used for analyses wherein heart samples were isolated. […] Heart samples (n=3-4 per group) were collected and snap-frozen in liquid nitrogen.

[8] = test system: serum creatine kinase (CK); assay: Serum creatine kinase (CK) level; assay type: in vivo, mouse; settings: four days after doxorubicin injection
Experimental: as §1
Serum creatine kinase (CK) levels, an index of cardiac injury, were also assessed to provide an additional read-out of heart function.

[9] = test system: mRNA of cTnI, cTnT, GATA4, MEF2c and Nkx2.5; assay: mRNA levels by quantitative RT-PCR in cardiomyocytes; assay type: cell-based, rat; settings: for mRNA level of cTnI and cTnT: cardiomyocytes, Dox or Dox+NRG1
[10] = test system: C57BL/6 mice; assay: Hemodynamic measurements by direct left ventricular catheterization, body and heart weights; assay type: in vivo, mouse
[11] = test system: cTnI; assay: Ubiquitinylation of cTnI (immunoprecipitation, ubiquitin antibody); assay type: cell-based, rat; settings: NRCM, Dox or Dox+NRG1
[12] = test system: mTOR, P70S6K, S6 and eIF4G; assay: Phosphorylation of translational molecules by Western blot; assay type: cell-based, rat; settings: cardiomyocytes, 48 hours after the treatment
Experimental: The phosphorylation levels of mTOR, P70S6K, S6, 4EBP and EIF4G were analyzed by Western blot analysis.
We assessed the activation of several translation machineries and related signaling pathways in Dox-Placebo and Dox-NRG1 treated cardiomyocytes.

[13] = WT mice, NRG1 0.75 mg/kg s.c. or placebo
[14] = doxorubicin-treated cardiomyocytes

Molecule: CC(C)C[C@@H](C=O)NC(=O)[C@H](CC(C)C)NC(=O)[C@H](CC(C)C)NC(=O)OCc1ccccc1 [MG132] (Cbz-Leu-Leu-Leu-aldehyde)
- effect on doxorubicin-induced down-regulation of cTnI [1]: blocked

Molecule: COc1cccc2c1C(=O)c1c(O)c3c(c(O)c1C2=O)C[C@@](O)(C(=O)CO)C[C@@H]3O[C@H]1C[C@H](N)[C@H](O)[C@H](C)O1 [doxorubicin]
- survival rate [2, 13]: 33%
- survival [3]: significantly decreased
- activation of caspase 3, 6 and 9 as well as caspase-10, 2, and 5 [4]: significantly increased
- cytochrome c release to the cytosol [5]: induced increasing
- cTnI protein level in dnPI3K hearts [6]: decrease
- cTnT protein levels in hearts of doxorubicin-treated mice compared to control mice [6]: No changes
- levels of cardiac structural proteins (α-sarcomeric actin, α-actinin, TnT, TnI, TnC, tropomyosin) in hearts ([7]; doxorubicin 20 mg/kg i.p.): significantly decreased
- serum CK level compared to control mice [8]: significantly increased
- mRNA level of cTnI and cTnT [9]: decreased
- BW ([10]; C57BL/6 mice, doxorubicin 20 mg/kg i.p. single dose with placebo or NRG1 0.75 mg/kg s.c. daily, five days after doxorubicin): 20 ± 0.4 g
- Cardiac Output ([10]; as E1): 1185 ± 203 µL/min
- EF ([10]; as E1): 17 ± 2 %
- HW/BW ([10]; as E1): 4.1 ± 0.1 mg/g
- HW/TL ([10]; as E1): 5.1 ± 0.1 mg/mm
- LVEDP ([10]; as E1): 3.6 ± 0.9^ mmHg
- LVW/BW ([10]; as E1): 3.5 ± 0.1^ mg/g
- LVW/TL ([10]; as E1): 4.4 ± 0.1 mg/mm
- dP/dt max ([10]; as E1): 7067 ± 884 ^ mmHg/sec
- dP/dt min ([10]; as E1): 5021 ± 602*^ mmHg/sec
- LVSP ([10]; as E1, LV systolic pressure): 84 ± 2*^ mmHg
- HW ([10]; as E1, heart weight): 83 ± 3 mg
- LVW ([10]; as E1, left ventricular weight): 70 ± 1 mg
- TL ([10]; as E1, tibia length): 16.3 ± 0.2 ^ mm
- ubiquitinylation of cTnI [11]: increased
- phosphorylation levels of mTOR, P70S6K, S6 and eIF4G [12]: decreased

B1: NRG1: GGF2, a recombinant neuregulin-1; gift from Acorda Therapeutics (protein)
chain: GNEAAPAGASVCYSSPPSVGSVQELAQRAAVVIEGKVHPQRRQQGALDRKAAAAAGEAGAWGGDREPPAAGPRALGPPAEEPLLAANGTVPSWPTAPVPSAGEPGEEAPYLVKVHQVWAVKAGGLKKDSLLTVRLGTWGHPAFPSCGRLKEDSRYIFFMEPDANSTSRAPAAFRASFPPLETGRNLKKEVSRVLCKRCALPPRLKEMKSQESAAGSKLVLRCETSSEYSSLRFKWFKNGNELNRKNKPQNIKIQKKPGKSELRINKASLADSGEYMCKVISKLGNDSASANITIVESNATSTSTTGTSHLVKCAEKEKTFCVNGGECFMVKDLSNPSRYLCKCPNEFTGDRCQNYVMASFYSTSTPFLSLPE
- survival rate [2, 13]: 67%
- survival rate ([2]; dnPI3K mice, NRG1 0.75 mg/kg s.c.): 56%
- survival [3]: significantly improved survival
- activation of caspase 3, 6 and 9 as well as caspase-10, 2, and 5 [4]: significantly inhibited
- cytochrome c release to the cytosol [5]: inhibited this effect
- cTnI protein level in dnPI3K hearts [6]: abolished doxorubicin-induced down-regulation
- protein levels of cTnI, cTnT and cTnC in doxorubicin-injured hearts ([7]; NRG1 0.75 mg/kg s.c. daily, doxorubicin 20 mg/kg i.p., five days after doxorubicin): significantly increased
- protein levels of α-sarcomeric actin, α-actinin and tropomyosin in doxorubicin-injured hearts ([7]; NRG1 injection in vivo): had no effects
- mRNA level of cTnI and cTnT [9]: maintained
- mRNA level of GATA4 [9, 14]: maintained
- mRNA level of MEF2c and Nkx2.5 [9, 14]: slightly increased
- ubiquitinylation of cTnI [11]: abolished this effect
